{"source": "ChEMBL document CHEMBL5465560", "about": "“Selectivity Literature for EUbOPEN Chemogenomic Library” (2024)", "key": {"[1]": {"molecular_target": "T1, Serine/threonine-protein kinase Nek9 (Homo sapiens) (UniProt Q8TD19)", "T1 sequence (whole entry)": "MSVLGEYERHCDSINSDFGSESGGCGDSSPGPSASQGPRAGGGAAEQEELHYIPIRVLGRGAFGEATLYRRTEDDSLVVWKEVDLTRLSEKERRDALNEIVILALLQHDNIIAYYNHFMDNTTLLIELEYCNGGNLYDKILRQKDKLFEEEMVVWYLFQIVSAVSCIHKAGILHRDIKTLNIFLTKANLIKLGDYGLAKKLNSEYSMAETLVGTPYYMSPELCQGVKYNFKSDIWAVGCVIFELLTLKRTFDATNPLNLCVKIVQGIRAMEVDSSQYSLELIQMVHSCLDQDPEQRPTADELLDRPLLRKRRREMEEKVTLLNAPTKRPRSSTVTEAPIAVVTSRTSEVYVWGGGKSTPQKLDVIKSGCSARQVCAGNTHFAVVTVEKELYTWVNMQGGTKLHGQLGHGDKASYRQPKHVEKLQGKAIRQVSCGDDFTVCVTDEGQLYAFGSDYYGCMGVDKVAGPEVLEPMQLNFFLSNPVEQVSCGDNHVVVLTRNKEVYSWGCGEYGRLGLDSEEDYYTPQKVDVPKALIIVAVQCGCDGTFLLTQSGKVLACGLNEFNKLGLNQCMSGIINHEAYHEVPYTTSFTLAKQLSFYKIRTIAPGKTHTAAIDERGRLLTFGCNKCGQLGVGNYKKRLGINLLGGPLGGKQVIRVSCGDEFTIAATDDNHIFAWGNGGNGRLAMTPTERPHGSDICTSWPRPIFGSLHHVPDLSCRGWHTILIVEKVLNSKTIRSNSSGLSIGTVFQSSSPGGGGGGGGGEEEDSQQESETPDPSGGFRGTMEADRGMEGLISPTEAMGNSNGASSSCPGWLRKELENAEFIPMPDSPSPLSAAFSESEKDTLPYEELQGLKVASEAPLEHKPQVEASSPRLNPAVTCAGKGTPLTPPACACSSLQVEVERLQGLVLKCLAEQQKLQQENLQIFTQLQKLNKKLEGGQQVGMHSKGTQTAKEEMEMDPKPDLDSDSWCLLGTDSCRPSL", "assay": "Selectivity interaction (Kinase panel (Z-LYTE Assay)) EUB0001632a NEK9", "details": "at 10 µM"}, "[2]": {"molecular_target": "Cyclin-dependent kinase 2 (Homo sapiens, UniProt P24941)", "assay": "Selectivity interaction (ActivX KiNativ screen (kinase selectivity in THP-1 cell lysates)) EUB0000639a CDK2", "type": "subcellular", "details": "lysate, at 0.01 µM"}, "[3]": {"molecular_target": "Tyrosine-protein kinase Fgr (Homo sapiens) (UniProt P09769)", "assay": "Selectivity interaction (Kinase panel (Invitrogen)) EUB0000639a FGR", "details": "at 200 nM"}, "[4]": {"molecular_target": "T2, Receptor-interacting serine/threonine-protein kinase 1 (Homo sapiens) (UniProt Q13546)", "T2 sequence (whole entry)": "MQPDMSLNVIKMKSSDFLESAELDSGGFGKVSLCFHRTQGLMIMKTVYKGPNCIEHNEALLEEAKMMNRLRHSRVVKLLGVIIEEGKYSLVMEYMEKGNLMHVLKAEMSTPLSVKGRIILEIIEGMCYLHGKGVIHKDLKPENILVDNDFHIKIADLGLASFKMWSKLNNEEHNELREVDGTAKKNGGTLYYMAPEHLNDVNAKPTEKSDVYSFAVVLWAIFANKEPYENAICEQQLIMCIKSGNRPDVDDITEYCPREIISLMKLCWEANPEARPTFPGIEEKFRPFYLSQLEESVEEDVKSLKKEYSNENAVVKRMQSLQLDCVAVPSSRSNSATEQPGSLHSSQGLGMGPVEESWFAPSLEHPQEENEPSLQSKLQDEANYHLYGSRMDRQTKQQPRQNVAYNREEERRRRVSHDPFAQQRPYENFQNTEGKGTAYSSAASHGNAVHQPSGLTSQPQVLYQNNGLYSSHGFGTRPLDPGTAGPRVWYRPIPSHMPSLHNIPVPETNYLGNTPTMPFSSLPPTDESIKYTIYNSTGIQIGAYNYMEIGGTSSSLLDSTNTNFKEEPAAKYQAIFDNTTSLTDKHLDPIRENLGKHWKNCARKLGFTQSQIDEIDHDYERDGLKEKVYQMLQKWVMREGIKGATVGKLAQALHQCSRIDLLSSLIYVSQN", "assay": "Selectivity interaction (KinomeScan (DiscoverX)) EUB0000695a RIPK1", "details": "at 100 nM"}, "[5]": {"molecular_target": "Serine/threonine-protein kinase Chk2 (Homo sapiens) (UniProt O96017)", "assay": "Selectivity interaction (KinomeScan (DiscoverX)) EUB0001049a CHEK2", "details": "at 1 µM"}, "[6]": {"molecular_target": "Serine/threonine-protein kinase PAK 2 (Homo sapiens) (UniProt Q13177)", "sequence (Q13177 whole entry)": "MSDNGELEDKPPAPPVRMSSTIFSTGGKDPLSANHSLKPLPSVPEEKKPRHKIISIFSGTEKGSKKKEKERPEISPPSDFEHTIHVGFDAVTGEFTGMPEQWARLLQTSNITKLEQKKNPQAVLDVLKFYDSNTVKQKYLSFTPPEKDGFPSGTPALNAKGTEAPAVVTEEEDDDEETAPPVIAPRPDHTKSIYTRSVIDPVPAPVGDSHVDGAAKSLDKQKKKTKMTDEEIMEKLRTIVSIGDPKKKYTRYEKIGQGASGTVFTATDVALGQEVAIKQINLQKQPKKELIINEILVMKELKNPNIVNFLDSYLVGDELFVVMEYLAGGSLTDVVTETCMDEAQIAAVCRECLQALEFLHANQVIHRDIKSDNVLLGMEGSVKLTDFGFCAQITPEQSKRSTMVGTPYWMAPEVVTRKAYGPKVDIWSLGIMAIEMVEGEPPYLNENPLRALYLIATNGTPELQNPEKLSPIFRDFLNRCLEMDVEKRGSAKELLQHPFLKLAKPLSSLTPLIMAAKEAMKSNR", "assay": "Selectivity interaction (Kinase screening (Nanosyn)) EUB0000604a PAK2"}, "[7]": {"molecular_target": "BDNF/NT-3 growth factors receptor (Homo sapiens) (UniProt Q16620)", "assay": "Selectivity interaction (Millipore kinase profiler) EUB0000124b NTRK2", "details": "at 10 µM"}, "[8]": {"molecular_target": "Ribosomal protein S6 kinase alpha-4 (Homo sapiens) (UniProt O75676)", "assay": "Selectivity interaction (Ambit KINOMEscan and KiNATiv profiling in Jurkat cells) EUB0000090b RPS6KA4", "type": "cell-based", "details": "at 1 µM"}, "[9]": {"molecular_target": "Phosphatidylinositol 4,5-bisphosphate 3-kinase catalytic subunit alpha isoform (Homo sapiens) (UniProt P42336)", "sequence (P42336 whole entry, canonical isoform)": "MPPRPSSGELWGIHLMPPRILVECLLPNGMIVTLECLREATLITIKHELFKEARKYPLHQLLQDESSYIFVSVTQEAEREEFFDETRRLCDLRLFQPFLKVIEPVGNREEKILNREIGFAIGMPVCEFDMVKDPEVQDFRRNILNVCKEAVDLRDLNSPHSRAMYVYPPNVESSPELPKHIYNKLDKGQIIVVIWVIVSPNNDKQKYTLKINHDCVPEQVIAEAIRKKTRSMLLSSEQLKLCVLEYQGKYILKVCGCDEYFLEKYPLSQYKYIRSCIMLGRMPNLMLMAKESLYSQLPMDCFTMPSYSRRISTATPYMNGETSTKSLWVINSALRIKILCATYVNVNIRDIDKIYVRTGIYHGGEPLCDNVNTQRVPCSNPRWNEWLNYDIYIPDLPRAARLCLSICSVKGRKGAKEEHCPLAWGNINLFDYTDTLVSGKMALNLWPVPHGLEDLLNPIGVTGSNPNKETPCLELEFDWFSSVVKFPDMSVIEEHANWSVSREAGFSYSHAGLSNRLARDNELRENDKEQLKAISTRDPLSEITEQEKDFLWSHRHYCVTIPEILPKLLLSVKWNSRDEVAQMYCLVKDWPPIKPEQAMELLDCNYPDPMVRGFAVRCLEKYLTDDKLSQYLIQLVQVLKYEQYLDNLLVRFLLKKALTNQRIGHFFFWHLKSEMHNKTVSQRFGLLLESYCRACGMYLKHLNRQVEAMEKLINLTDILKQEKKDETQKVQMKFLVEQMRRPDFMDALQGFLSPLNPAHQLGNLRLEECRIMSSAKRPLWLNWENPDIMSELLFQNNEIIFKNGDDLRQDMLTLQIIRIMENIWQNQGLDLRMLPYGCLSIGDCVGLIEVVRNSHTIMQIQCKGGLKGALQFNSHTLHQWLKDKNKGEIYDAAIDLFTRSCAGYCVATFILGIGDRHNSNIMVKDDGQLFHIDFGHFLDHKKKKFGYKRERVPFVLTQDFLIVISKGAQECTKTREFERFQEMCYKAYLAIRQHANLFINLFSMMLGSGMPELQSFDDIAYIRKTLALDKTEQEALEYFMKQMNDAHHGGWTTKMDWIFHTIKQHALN", "assay": "(§1) Selectivity interaction (KinomeScan (DiscoverX)) EUB0000655a PIK3CA", "details": "at 10 µM"}, "[10]": {"tested_on": "Phosphatidylinositol 4,5-bisphosphate 3-kinase catalytic subunit alpha isoform (Homo sapiens), P42336 [C420R]", "assay": "as §1", "details": "at 10 µM"}, "[11]": {"tested_on": "Phosphatidylinositol 4,5-bisphosphate 3-kinase catalytic subunit alpha isoform (Homo sapiens), P42336 [E542K]", "assay": "as §1", "details": "at 10 µM"}, "[12]": {"tested_on": "Phosphatidylinositol 4,5-bisphosphate 3-kinase catalytic subunit alpha isoform (Homo sapiens), P42336 [E545A]", "assay": "as §1", "details": "at 10 µM"}, "[13]": {"tested_on": "Phosphatidylinositol 4,5-bisphosphate 3-kinase catalytic subunit alpha isoform (Homo sapiens), P42336 [E545K]", "assay": "as §1", "details": "at 10 µM"}, "[14]": {"tested_on": "Phosphatidylinositol 4,5-bisphosphate 3-kinase catalytic subunit alpha isoform (Homo sapiens), P42336 [H1047L]", "assay": "as §1", "details": "at 10 µM"}, "[15]": {"tested_on": "Phosphatidylinositol 4,5-bisphosphate 3-kinase catalytic subunit alpha isoform (Homo sapiens), P42336 [H1047Y]", "assay": "as §1", "details": "at 10 µM"}, "[16]": {"tested_on": "Phosphatidylinositol 4,5-bisphosphate 3-kinase catalytic subunit alpha isoform (Homo sapiens), P42336 [I800L]", "sequence (P42336 whole entry I800L, canonical isoform)": "as the sequence (P42336 whole entry, canonical isoform) above, with I800L counted along it", "assay": "as §1", "details": "at 10 µM"}, "[17]": {"tested_on": "Phosphatidylinositol 4,5-bisphosphate 3-kinase catalytic subunit alpha isoform (Homo sapiens), P42336 [M1043I]", "assay": "as §1", "details": "at 10 µM"}, "[18]": {"tested_on": "Phosphatidylinositol 4,5-bisphosphate 3-kinase catalytic subunit alpha isoform (Homo sapiens), P42336 [Q546K]", "assay": "as §1", "details": "at 10 µM"}, "[19]": {"molecular_target": "TP53-binding protein 1 (Homo sapiens) (UniProt Q12888)", "sequence (Q12888 whole entry, the tested form may be a part)": "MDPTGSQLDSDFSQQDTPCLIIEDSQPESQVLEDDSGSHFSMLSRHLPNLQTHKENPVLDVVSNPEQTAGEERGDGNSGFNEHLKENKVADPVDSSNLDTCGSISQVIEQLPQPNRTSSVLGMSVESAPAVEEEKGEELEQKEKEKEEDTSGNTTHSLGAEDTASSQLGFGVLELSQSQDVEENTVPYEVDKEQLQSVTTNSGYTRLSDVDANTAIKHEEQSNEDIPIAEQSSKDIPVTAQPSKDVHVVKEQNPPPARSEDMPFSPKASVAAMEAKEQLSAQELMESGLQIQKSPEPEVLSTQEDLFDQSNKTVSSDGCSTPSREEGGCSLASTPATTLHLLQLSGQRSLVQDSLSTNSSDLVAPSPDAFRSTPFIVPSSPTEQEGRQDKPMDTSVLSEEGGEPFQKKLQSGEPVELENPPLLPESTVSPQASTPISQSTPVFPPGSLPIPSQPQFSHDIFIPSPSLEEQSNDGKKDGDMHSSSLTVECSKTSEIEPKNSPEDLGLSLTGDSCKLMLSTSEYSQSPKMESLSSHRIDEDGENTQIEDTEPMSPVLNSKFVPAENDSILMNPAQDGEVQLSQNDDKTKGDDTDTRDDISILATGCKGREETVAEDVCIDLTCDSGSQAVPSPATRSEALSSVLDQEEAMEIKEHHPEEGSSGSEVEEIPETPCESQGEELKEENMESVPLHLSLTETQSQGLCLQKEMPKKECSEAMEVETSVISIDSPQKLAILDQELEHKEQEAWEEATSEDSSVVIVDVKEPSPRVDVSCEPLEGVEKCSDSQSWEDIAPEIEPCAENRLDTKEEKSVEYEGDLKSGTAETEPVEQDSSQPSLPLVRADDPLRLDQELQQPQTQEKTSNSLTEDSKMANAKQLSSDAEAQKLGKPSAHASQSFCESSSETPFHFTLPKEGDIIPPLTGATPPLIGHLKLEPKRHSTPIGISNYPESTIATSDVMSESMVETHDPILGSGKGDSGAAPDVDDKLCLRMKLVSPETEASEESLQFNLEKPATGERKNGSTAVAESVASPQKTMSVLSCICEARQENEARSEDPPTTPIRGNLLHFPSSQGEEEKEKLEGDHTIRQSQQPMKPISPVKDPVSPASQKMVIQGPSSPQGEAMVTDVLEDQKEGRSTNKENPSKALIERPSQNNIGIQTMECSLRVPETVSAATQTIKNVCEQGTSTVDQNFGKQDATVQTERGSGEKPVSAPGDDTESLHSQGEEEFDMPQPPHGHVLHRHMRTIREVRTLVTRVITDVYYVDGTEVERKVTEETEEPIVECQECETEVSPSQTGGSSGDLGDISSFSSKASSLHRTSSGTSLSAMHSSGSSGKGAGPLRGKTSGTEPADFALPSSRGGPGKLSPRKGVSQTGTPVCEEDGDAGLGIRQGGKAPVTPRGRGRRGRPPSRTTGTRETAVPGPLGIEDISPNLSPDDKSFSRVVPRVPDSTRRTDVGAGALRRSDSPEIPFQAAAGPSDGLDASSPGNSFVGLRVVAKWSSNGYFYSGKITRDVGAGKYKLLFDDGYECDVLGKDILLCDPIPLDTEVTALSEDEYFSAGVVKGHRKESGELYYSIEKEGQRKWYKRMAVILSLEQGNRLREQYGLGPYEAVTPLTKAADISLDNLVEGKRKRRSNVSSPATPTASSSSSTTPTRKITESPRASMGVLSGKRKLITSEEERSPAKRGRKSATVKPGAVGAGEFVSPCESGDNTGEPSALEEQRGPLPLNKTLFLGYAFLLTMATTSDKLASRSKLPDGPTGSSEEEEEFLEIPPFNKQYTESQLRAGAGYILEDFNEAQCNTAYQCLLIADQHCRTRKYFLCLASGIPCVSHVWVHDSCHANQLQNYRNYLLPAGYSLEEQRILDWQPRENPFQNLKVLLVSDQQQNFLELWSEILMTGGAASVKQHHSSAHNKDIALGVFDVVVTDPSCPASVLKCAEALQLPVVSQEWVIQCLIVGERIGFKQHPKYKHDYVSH", "assay": "Selectivity interaction (PWWP, WD40, and Tudor domain panel (DSLS measurements, literature)) EUB0000270b TP53BP1"}, "[20]": {"molecular_target": "MAP kinase-interacting serine/threonine-protein kinase 2 (Homo sapiens, UniProt Q9HBH9)", "sequence (Q9HBH9 whole entry, looked up)": "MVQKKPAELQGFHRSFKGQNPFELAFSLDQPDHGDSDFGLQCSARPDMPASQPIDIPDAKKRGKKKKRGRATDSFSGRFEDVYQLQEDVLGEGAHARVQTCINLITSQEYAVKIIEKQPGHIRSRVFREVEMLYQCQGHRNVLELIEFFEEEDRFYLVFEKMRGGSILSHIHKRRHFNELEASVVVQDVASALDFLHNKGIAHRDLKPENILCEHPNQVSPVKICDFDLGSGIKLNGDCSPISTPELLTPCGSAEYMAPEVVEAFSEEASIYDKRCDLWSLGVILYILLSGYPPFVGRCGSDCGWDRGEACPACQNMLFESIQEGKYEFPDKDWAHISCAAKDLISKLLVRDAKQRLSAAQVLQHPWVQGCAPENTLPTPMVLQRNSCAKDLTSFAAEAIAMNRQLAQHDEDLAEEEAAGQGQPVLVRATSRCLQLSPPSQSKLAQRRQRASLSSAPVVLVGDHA", "assay": "Selectivity interaction (Kinase panel (Carna Biosciences)) EUB0001542aTs MKNK2", "details": "at 1 µM"}, "[21]": {"molecular_target": "cAMP-dependent protein kinase catalytic subunit alpha (Homo sapiens, UniProt P17612)", "details": "at 10 µM"}}, "data": [{"compound": "Cn1cc(-n2cnc3c(NCc4nc5cc(Cl)c(Cl)cc5[nH]4)nc(N4CCOCC4)nc32)cn1", "values": [{"measurement": "% of control", "setting": "[1]", "result": -0.159, "unit": "%"}]}, {"compound": "CC[C@@H]1[C@H](F)C(=O)N[C@@H]1COc1nccc2cc(C(N)=O)c(OC)cc12", "note": "[ZIMLOVISERTIB]", "values": [{"measurement": "% of inhibition", "setting": "[2]", "result": 0.3, "unit": "%"}, {"measurement": "% of inhibition", "setting": "[3]", "result": 8.5, "unit": "%"}]}, {"compound": "Cc1cc(F)c(C(=O)Nc2cccc(-c3nncn3C(C)C)n2)cc1-n1cnc(C2CC2)c1", "values": [{"measurement": "% of control", "setting": "[4]", "result": 89, "unit": "%"}]}, {"compound": "COc1cc(Nc2nc(C)cc(-c3cnn4nc(OC)ccc34)n2)cc(C(F)(F)F)c1", "values": [{"measurement": "% of control", "setting": "[5]", "result": 54, "unit": "%"}]}, {"compound": "Cc1cnc(Nc2ccc(F)cc2Cl)nc1-c1c[nH]c(C(=O)N[C@H](CO)c2cccc(Cl)c2)c1", "values": [{"measurement": "% of inhibition", "setting": "[6]", "result": 0, "unit": "%"}]}, {"compound": "CC(=O)Nc1cccc(-n2c(=O)n(C3CC3)c(=O)c3c(Nc4ccc(I)cc4F)n(C)c(=O)c(C)c32)c1", "values": [{"measurement": "% of control", "setting": "[7]", "result": 120, "unit": "%"}]}, {"compound": "CN(C)C/C=C/C(=O)Nc1ccc(C(=O)N2CCCC(Nc3ncc(Cl)c(-c4c[nH]c5ccccc45)n3)C2)cc1", "note": "(stereo unspecified)", "values": [{"measurement": "% of control", "setting": "[8]", "result": 93, "unit": "%"}]}, {"compound": "CN(C)CCOc1ccc(-c2nc(-c3ccncc3)c(-c3ccc4c(c3)CC/C4=N\\O)[nH]2)cc1", "values": [{"measurement": "% of control", "setting": "[9]", "result": 85, "unit": "%"}, {"measurement": "% of control", "setting": "[10]", "result": 100, "unit": "%"}, {"measurement": "% of control", "setting": "[11]", "result": 93, "unit": "%"}, {"measurement": "% of control", "setting": "[12]", "result": 83, "unit": "%"}, {"measurement": "% of control", "setting": "[13]", "result": 100, "unit": "%"}, {"measurement": "% of control", "setting": "[14]", "result": 98, "unit": "%"}, {"measurement": "% of control", "setting": "[15]", "result": 88, "unit": "%"}, {"measurement": "% of control", "setting": "[16]", "result": 81, "unit": "%"}, {"measurement": "% of control", "setting": "[17]", "result": 84, "unit": "%"}, {"measurement": "% of control", "setting": "[18]", "result": 81, "unit": "%"}]}, {"compound": "Cc1cc(CN)cc(C)c1-c1ncn(C)c1-c1cncn1C", "values": [{"measurement": "dTagg", "setting": "[19]", "result": 0.1, "unit": "K"}]}, {"compound": "Cn1cc(Nc2nccc(N3CC4CCC(C3)N4C(=O)[C@@H]3CC3(F)F)n2)cn1", "values": [{"measurement": "% of inhibition", "setting": "[20]", "result": 68, "unit": "%"}]}, {"compound": "Cc1cc([C@@H](C)Nc2ccccc2C(=O)O)c2nc(N3CCOCC3)cc(=O)n2c1", "note": "[AZD-6482]", "values": [{"measurement": "% of control", "setting": "[21]", "result": 100, "unit": "%"}]}]}
